Measured values reported in PubChem BioAssay AID1919015 (Molecular Pharmacology Branch, DTP, NCI, 2023).

Tested on: OVCAR-5 complex spheroids with HUVEC/MSC, viability, % test/control
Experiment: Anticancer human tumor OVCAR-5 cell line growth inhibition [AhR];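 note: spheroids exposed to compounds for 7 days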;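 for viability, T/C: 100% = DMSO vehicle control wells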
Details: for IC50: curve of first compound; for viability, T/C: stronger effect = lower value
Description: Multicellular complex tumor spheroid response to aryl hydrocarbon receptor antagonists in combination with a variety of drugs and investigational agents in selected tumor cell lines
The current study was undertaken to assess response to aryl hydrocarbon receptor antagonists in combination with standard-of-care drugs and investigational agents in solid tumor complex spheroid models. Complex spheroids include a stromal component modeled by human endothelial cells (HUVEC) and fibroblasts modeled by human mesenchymal stem cells (MSCs). The concentration ranges selected for each drug and investigational agent were based upon clinically achievable concentrations if the clinical Cmax of the agent was known.
Compounds. The drugs and investigational agents: BAY 2416964 (NSC825713), GNF351 (NSC835774), CH-223191 (NSC835775), CPI-455 (NSC825282), aza-TdCyd (NSC777586), decitabine (NSC127716), belinostat (NSC758774), entinostat (NSC756642), pevonedistat (NSC761192), tazemetostat (NSC777109), talazoparib (NSC765396), olaparib (NSC753686), selinexor (NSC780203), nedisertib (M3814, NSC802822), bortezomib (NSC756655), venetoclax (NSC766270), doxorubicin (NSC123127), elimusertib (BAY189344, NSC800525), ceralasertib (AZD6738, NSC777638), TAK-243 (NSC785004), alisertib (NSC759677), etoposide (NSC141540), topotecan (NSC609699), eribulin (NSC707389), gemcitabine (NSC613327), carboplatin (NSC241240), cisplatin (NSC119875), and SN-38 (NSC673596) were obtained from the National Cancer Institute (NCI) Developmental Therapeutics Program Chemical Repository (32). The FDA-approved anticancer drug set is available from the Developmental Therapeutics Program at https://dtp.cancer.gov/organization/dscb/obtaining/available plates.htm. […] The stock solutions were prepared in dimethyl sulfoxide (DMSO, Sigma-Aldrich, St. Louis, MO, cat. D2650), except for the platinum compounds which were prepared in saline (Quality Biological, Gaithersburg, MD, cat. 114-055-101), at 800-fold the tested concentration and stored at -70 degrees C prior to their use. All drugs and investigational agents were tested over a range starting from a high concentration at or near the clinical Cmax and decreasing in half-log increments. If the clinical Cmax for an agent had not been determined, the highest concentration tested was 10 microM (Table 1).
Cell Culture. All cells were maintained in an incubator at 37 degrees C and 5% CO2 with 95% humidity. The PDC lines were cultured according to standard operating procedures established by the NCI PDMR (https://pdmr.cancer.gov). Briefly, all PDCs were thawed and cultured in Matrigel-coated flasks prepared with a working solution of 1X Ham's F-12 nutrient mix, without supplementation (Invitrogen, Waltham, MA, cat. 11765054), 100 U/mL penicillin-streptomycin (Invitrogen, cat. 15140122), and 2.5% Matrigel (Corning Inc., Corning, NY, cat. 354248) for the first three passages. All PDCs were cultured in complete DMEM/F-12 media containing advanced DMEM/F-12 (Invitrogen, cat. 12634028), 4.9% defined fetal bovine serum, heat inactivated (HyClone Laboratories Inc., Logan, UT, cat. SH30070.03HI), 389 ng/mL hydrocortisone (Sigma-Aldrich, cat. H4001), 9.7 ng/mL human EGF recombinant protein (Invitrogen, cat. PHG0313), 23.4 microg/mL adenine (Sigma-Aldrich, cat. A2786), 97.3 U/mL penicillin-streptomycin (Invitrogen, cat. 15140122), 1.9 mM L-glutamine (Invitrogen, cat. 25030081), and 9.7 microM Y-27632 dihydrochloride (Tocris Bioscience, Bristol, United Kingdom, cat. 1254). The PDCs were cultured in complete DMEM/F12 media without 10 microM Y-27632 dihydrochloride for at least two passages prior to the screen. The established cell lines NCI-H1341 and […] were cultured in DMEM/F-12, HEPES (Invitrogen, cat. 11330032), 5% defined fetal bovine serum (HyClone Laboratories Inc., cat. SH30070.03), ITS premix universal culture supplement [insulin (5 microg/mL), transferrin (5 microg/mL), and selenious acid (5 ng/mL)] […]

What does the source list for `CCc1c2c(nc3ccc(O)cc13)-c1cc3c(c(=O)n1C2)COC(=O)[C@]3(O)CC` + CC(CO)NC(=O)c1cc(-c2ccc(Cl)cc2)nn(-c2cnn(C)c2)c1=O?
IC50 (second compound 0.1 µM): 6.63 nM; IC50 (second compound 0.316 µM): 5.74 nM; IC50 (second compound 1 µM): 7.31 nM; IC50 (second compound 3.16 µM): 5.58 nM; IC50 (second compound 10 µM): 10.6 nM; viability, T/C (second compound 0.1 µM, first compound 0.000949 µM): 77.5%; viability, T/C (second compound 0.1 µM, first compound 0.003 µM): 55.8%; viability, T/C (second compound 0.1 µM, first compound 0.00949 µM): 42.6%; viability, T/C (second compound 0.1 µM, first compound 0.03 µM): 37.8%; viability, T/C (second compound 0.1 µM, first compound 0.0949 µM): 17.8%; viability, T/C (second compound 0.1 µM, first compound 0.3 µM): 6.98%; viability, T/C (second compound 0.316 µM, first compound 0.000949 µM): 76%; viability, T/C (second compound 0.316 µM, first compound 0.003 µM): 54%; viability, T/C (second compound 0.316 µM, first compound 0.00949 µM): 43.9%; viability, T/C (second compound 0.316 µM, first compound 0.03 µM): 32.8%; viability, T/C (second compound 0.316 µM, first compound 0.0949 µM): 18.7%; viability, T/C (second compound 0.316 µM, first compound 0.3 µM): 6.72%; viability, T/C (second compound 1 µM, first compound 0.000949 µM): 70.5%; viability, T/C (second compound 1 µM, first compound 0.003 µM): 54.6%; viability, T/C (second compound 1 µM, first compound 0.00949 µM): 49.7%; viability, T/C (second compound 1 µM, first compound 0.03 µM): 35.9%; viability, T/C (second compound 1 µM, first compound 0.0949 µM): 15.5%; viability, T/C (second compound 1 µM, first compound 0.3 µM): 7.35%; viability, T/C (second compound 3.16 µM, first compound 0.000949 µM): 56.8%; viability, T/C (second compound 3.16 µM, first compound 0.003 µM): 47.6%; viability, T/C (second compound 3.16 µM, first compound 0.00949 µM): 48.5%; viability, T/C (second compound 3.16 µM, first compound 0.03 µM): 35.5%; viability, T/C (second compound 3.16 µM, first compound 0.0949 µM): 14.7%; viability, T/C (second compound 3.16 µM, first compound 0.3 µM): 6.85%; viability, T/C (second compound 10 µM, first compound 0.000949 µM): 51.7%; viability, T/C (second compound 10 µM, first compound 0.003 µM): 51.4%; viability, T/C (second compound 10 µM, first compound 0.00949 µM): 57.5%; viability, T/C (second compound 10 µM, first compound 0.03 µM): 34.5%; viability, T/C (second compound 10 µM, first compound 0.0949 µM): 17.7%; viability, T/C (second compound 10 µM, first compound 0.3 µM): 7.22%
